From patent publication US6043231A, “Inhibition of excessive phospholipase A2 activity and/or production by non-antimicrobial tetracyclines” (The Research Foundation of State Univ. of New York, priority 1993, dated 2000)

Legend:
Assay type in all cases: biochemical
[1] = biological target: T1, recombinant human PLA2 (snpPLA2) (Homo sapiens, UniProt P14555); assay: PLA2 inhibition, radiolabelled E. coli assay, recombinant human PLA2
T1 sequence (P14555 21-144): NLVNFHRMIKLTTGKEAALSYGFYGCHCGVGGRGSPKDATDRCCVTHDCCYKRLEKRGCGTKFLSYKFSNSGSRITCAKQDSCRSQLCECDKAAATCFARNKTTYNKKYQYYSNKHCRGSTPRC
Method: (§1) Six different chemically-modified tetracyclines, including CMT-1 (4-dedimethylaminotetracycline), CMT-2 (tetracyclinonitrile), CMT-3 (6-demethyl-6-deoxy-4-de-dimethylaminotetracycline), CMT-4 (4-de-dimethylamino-7-chloro-tetracycline), CMT-5 (pyrazole analog) and CMT-6 (4-hydroxy-4-dedimethylaminotetracycline), were examined for their ability to inhibit PLA2 activity in vitro. The sources of PLA2 that were tested included recombinant human PLA2, human pancreatic and porcine pancreatic PLA2 and Naja naja PLA2. […] Various concentrations of CMTs, ranging from 5-100 μg/ml, were preincubated with the different PLA2 enzymes for 30 minutes and the mixture was tested for PLA2 activity using a known E. coli assay method (see Arthritis and Rheumatism, 34 Supp. 9: p. S160 (abst C167)).
(§2) A chemically-modified tetracycline, 4-dedimethyl-amino-7-dimethylaminotetracycline (CMT-10), was examined for its ability to inhibit PLA2 activity in vitro. The sources of PLA2 that were tested included were recombinant human PLA2 (snpPLA2), human pancreatic and porcine pancreatic PLA2 and Naja naja PLA2. […] Various concentrations of CMT-10, ranging from 5-100 μg/ml, were preincubated with the different PLA2 enzymes for 30 minutes and the mixture was tested for PLA2 activity using a known E. coli assay method (see Arthritis and Rheumatism, 34 Supp. 9: p. S160 (abst C167)).
(§3) In particular, [^14 C]Oleic acid-labelled Escherichia coli (strain K12 C600) were used as the substrate. This substrate has been characterized with respect to phospholipid composition and distribution of radiolabel. Reaction mixtures contained 10 mg bovine serum albumin, 2 mM CaCl2, 2.8×10^8 radiolabelled E. coli and 0.1 M Tris-HCl buffer, pH 7.5 in a total volume of 1.5 ml. Reaction mixtures were incubated at 37° C. for 30 min. The reaction was terminated by filtration through a 0.45 μm Millipore filter, thereby retaining unhydrolysed E. coli membranes, and allowing the [^14 C]oleic acid bound to the BSA carrier, released as a result of PLA2 hydrolysis, to pass through the filter. Assays were performed in duplicate and values shown represent the mean of two determinations with a SD<5% of the mean. Assays were performed in substrate excess and enzyme activities were corrected for non-enzymatichydrolysis. One unit of PLA2 activity is defined as the hydrolysis of 56 pmol of phospholipid substrate (representing 1% of total E. coli phospholipid) in 30 min at 37° C.

[2] = biological target: T2, porcine pancreatic PLA2 (Sus scrofa, UniProt P00592); assay: PLA2 inhibition, E. coli assay, porcine pancreatic PLA2
T2 construct: labelled E. coli membrane substrate
Method: as §1, §2, §3

[3] = biological target: T3, human pancreatic PLA2 (Homo sapiens, UniProt P04054); assay: PLA2 inhibition, E. coli assay, human pancreatic PLA2
T3 construct: labelled E. coli membrane substrate
Method: as §1, §2, §3

[4] = concentrations of 25 μg/ml or greater
[5] = recombinant human PLA2, 30 min preincubation

T3 sequence (P04054 23-148): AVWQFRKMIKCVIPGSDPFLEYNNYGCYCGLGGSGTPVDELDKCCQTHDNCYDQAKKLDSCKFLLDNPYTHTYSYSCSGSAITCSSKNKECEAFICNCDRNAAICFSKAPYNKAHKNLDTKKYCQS
T2 sequence (P00592 23-146): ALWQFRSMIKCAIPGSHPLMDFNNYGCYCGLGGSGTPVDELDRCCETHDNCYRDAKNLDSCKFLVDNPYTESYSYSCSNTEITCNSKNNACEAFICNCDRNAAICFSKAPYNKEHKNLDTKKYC

SMILES	PLA2-inhibitory activity ([1]; highest concentrations tested (range 5-100 μg/ml))	inhibition of porcine pancreatic PLA2 [2]	inhibition of human pancreatic PLA2 [3]	PLA2-inhibitory activity [1, 4]	IC50 (concentration of the drug required to inhibit 50% of PLA2) [1, 5] [µg/mL]	IC50 ([1]; recombinant human PLA2, 30 min preincubation, read-out: IC50 (concentration of the drug required to inhibit 50% of PLA2) (converted)) [µM]	% inhibition ([3]; 30 μg/ml, human pancreatic PLA2) [%]
CN(C)C1C(=O)C(C#N)=C(O)C2(O)C(=O)C3=C(O)c4c(O)cccc4C(C)(O)C3CC12 (stereo not drawn) [CMT-2, tetracyclinonitrile]	lacked any PLA2 -inhibitory activity						
CC1(O)c2cccc(O)c2C(=O)C2=C(O)C3(O)C(=O)C(C(N)=O)=C(O)CC3CC21 (stereo not drawn) [CMT-1, 4-dedimethylaminotetracycline]		found to inhibit	found to inhibit	exhibited significant PLA2 -inhibitory activity	37		
NC(=O)C1=C(O)C2(O)C(=O)C3=C(O)c4c(O)cccc4CC3CC2CC1=O (stereo not drawn) [CMT-3, 6-demethyl-6-deoxy-4-de-dimethylaminotetracycline]		found to inhibit	found to inhibit	exhibited significant PLA2 -inhibitory activity		75.4	
CN(C)c1ccc(O)c2c1C(C)(O)C1CC3CC(O)=C(C(N)=O)C(=O)C3(O)C(O)=C1C2=O (stereo not drawn) [CMT-10, 4-dedimethylamino-7-dimethylaminotetracycline]			found to inhibit	exhibited significant PLA2 -inhibitory activity	30		66
CC1(O)c2cccc(O)c2C(=O)C2=C(O)C3(O)C(=O)C(C(N)=O)=C(O)C(O)C3CC21 (stereo not drawn) [CMT-6, 4-hydroxy-4-dedimethylaminotetracycline]		found to inhibit	found to inhibit	exhibited significant PLA2 -inhibitory activity	17		
CC1(O)c2c(Cl)ccc(O)c2C(=O)C2=C(O)C3(O)C(=O)C(C(N)=O)=C(O)CC3CC21 (stereo not drawn) [CMT-4, 4-de-dimethylamino-7-chloro-tetracycline]		found to inhibit	found to inhibit	exhibited significant PLA2 -inhibitory activity	42		
